# PubChem BioAssay (NCI)
#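 Exposure lasted 48 hours, with cells grown in 96-well plates and compounds tested at five concentrations. GI50: concentration for 50% inhibition of growth. Definition used: TGI = concentration required for complete inhibition of growth.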
# Key:
# Test in all cases: NCI-60 cell line screen, 48 h
# HCT-116 colon = system: HCT-116 colon
# KM12 colon = system: KM12 colon
# MDA-MB-468 breast = system: MDA-MB-468 breast
# HL-60(TB) leukemia = system: HL-60(TB) leukemia
# SF-539 CNS = system: SF-539 CNS
# CAKI-1 renal = system: CAKI-1 renal
# M14 melanoma = system: M14 melanoma
# OVCAR-8 ovarian = system: OVCAR-8 ovarian
# UO-31 renal = system: UO-31 renal
# U251 CNS = system: U251 CNS
# SW-620 colon = system: SW-620 colon
# HCT-15 colon = system: HCT-15 colon
# SN12C renal = system: SN12C renal
# CCRF-CEM leukemia = system: CCRF-CEM leukemia
# MDA-MB-231 breast = system: MDA-MB-231 breast
# NCI-H522 lung = system: NCI-H522 lung
# NCI/ADR-RES ovarian = system: NCI/ADR-RES ovarian
# RPMI-8226 leukemia = system: RPMI-8226 leukemia
# ACHN renal = system: ACHN renal
# HCC-2998 colon = system: HCC-2998 colon
# COLO 205 colon = system: COLO 205 colon
# DU-145 prostate = system: DU-145 prostate
# MCF7 breast = system: MCF7 breast
# NCI-H460 lung = system: NCI-H460 lung
# A498 renal = system: A498 renal
# SK-OV-3 ovarian = system: SK-OV-3 ovarian
# UACC-257 melanoma = system: UACC-257 melanoma
# T-47D breast = system: T-47D breast
# K-562 leukemia = system: K-562 leukemia
# EKVX NSCLC = system: EKVX NSCLC
# SNB-75 CNS = system: SNB-75 CNS
# SR leukemia = system: SR leukemia
# SK-MEL-2 melanoma = system: SK-MEL-2 melanoma
# HT29 colon = system: HT29 colon
# SF-295 CNS = system: SF-295 CNS
# NCI-H23 lung = system: NCI-H23 lung
# OVCAR-5 ovarian = system: OVCAR-5 ovarian
# OVCAR-3 ovarian = system: OVCAR-3 ovarian
# SK-MEL-5 melanoma = system: SK-MEL-5 melanoma
# HOP-92 NSCLC = system: HOP-92 NSCLC
# HOP-62 NSCLC = system: HOP-62 NSCLC
# BT-549 breast = system: BT-549 breast
# NCI-H226 lung = system: NCI-H226 lung
# RXF 393 renal = system: RXF 393 renal
# SF-268 CNS = system: SF-268 CNS
# A549 NSCLC = system: A549 NSCLC
# MALME-3M melanoma = system: MALME-3M melanoma
# PC-3 prostate = system: PC-3 prostate
# LOX IMVI melanoma = system: LOX IMVI melanoma
# 786-0 renal = system: 786-0 renal
# SK-MEL-28 melanoma = system: SK-MEL-28 melanoma
# MOLT-4 leukemia = system: MOLT-4 leukemia
# HS 578T breast = system: HS 578T breast
# OVCAR-4 ovarian = system: OVCAR-4 ovarian
# SNB-19 CNS = system: SNB-19 CNS
# TK-10 renal = system: TK-10 renal
# IGROV1 ovarian = system: IGROV1 ovarian
# UACC-62 melanoma = system: UACC-62 melanoma
# MDA-MB-435 = system: MDA-MB-435
structure (smiles),measurement,setting,value
COc1ccc(-c2cc(C(=O)N=Nc3c(O)[nH]c4ccccc34)c3ccccc3n2)cc1,GI50,HCT-116 colon,3.18 µM
same,TGI,HCT-116 colon,10.7 µM
same,GI50,KM12 colon,11.1 µM
same,TGI,KM12 colon,28.3 µM
same,GI50,MDA-MB-468 breast,4.94 µM
same,TGI,MDA-MB-468 breast,17.3 µM
same,GI50,HL-60(TB) leukemia,13.1 µM
same,TGI,HL-60(TB) leukemia,> 100 µM
same,GI50,SF-539 CNS,3.2 µM
same,TGI,SF-539 CNS,10.2 µM
same,GI50,CAKI-1 renal,2.56 µM
same,TGI,CAKI-1 renal,11 µM
same,GI50,M14 melanoma,4.3 µM
same,TGI,M14 melanoma,17.4 µM
same,GI50,OVCAR-8 ovarian,3.13 µM
same,TGI,OVCAR-8 ovarian,12.4 µM
same,GI50,UO-31 renal,6 µM
same,TGI,UO-31 renal,20.1 µM
same,GI50,U251 CNS,2.34 µM
same,TGI,U251 CNS,6.37 µM
same,GI50,SW-620 colon,3.91 µM
same,TGI,SW-620 colon,17.5 µM
same,GI50,HCT-15 colon,10.3 µM
same,TGI,HCT-15 colon,24.7 µM
same,GI50,SN12C renal,11.3 µM
same,TGI,SN12C renal,24.4 µM
same,GI50,CCRF-CEM leukemia,9.06 µM
same,TGI,CCRF-CEM leukemia,> 100 µM
same,GI50,MDA-MB-231 breast,2.8 µM
same,TGI,MDA-MB-231 breast,10.2 µM
same,GI50,NCI-H522 lung,1.88 µM
same,TGI,NCI-H522 lung,4.71 µM
same,GI50,NCI/ADR-RES ovarian,3.48 µM
same,TGI,NCI/ADR-RES ovarian,15 µM
same,GI50,RPMI-8226 leukemia,9.32 µM
same,TGI,RPMI-8226 leukemia,> 100 µM
same,GI50,ACHN renal,11 µM
same,TGI,ACHN renal,22.9 µM
same,GI50,HCC-2998 colon,3.87 µM
same,TGI,HCC-2998 colon,13.1 µM
same,GI50,COLO 205 colon,11.6 µM
same,TGI,COLO 205 colon,26.6 µM
same,GI50,DU-145 prostate,3.27 µM
same,TGI,DU-145 prostate,12.1 µM
same,GI50,MCF7 breast,10.7 µM
same,TGI,MCF7 breast,26.3 µM
same,GI50,NCI-H460 lung,3.32 µM
same,TGI,NCI-H460 lung,11.4 µM
same,GI50,A498 renal,21.4 µM
same,TGI,A498 renal,38.6 µM
same,GI50,SK-OV-3 ovarian,11.6 µM
same,TGI,SK-OV-3 ovarian,24.8 µM
same,GI50,UACC-257 melanoma,9.71 µM
same,TGI,UACC-257 melanoma,24.1 µM
same,GI50,T-47D breast,8.61 µM
same,TGI,T-47D breast,27.2 µM
same,GI50,K-562 leukemia,4.53 µM
same,TGI,K-562 leukemia,> 100 µM
same,TGI,EKVX NSCLC,22.5 µM
same,GI50,SNB-75 CNS,1.94 µM
same,TGI,SNB-75 CNS,15.1 µM
same,GI50,SR leukemia,4.05 µM
same,TGI,SR leukemia,> 100 µM
same,GI50,SK-MEL-2 melanoma,16 µM
same,TGI,SK-MEL-2 melanoma,35.2 µM
same,GI50,HT29 colon,3.59 µM
same,TGI,HT29 colon,12.8 µM
same,GI50,SF-295 CNS,11.2 µM
same,TGI,SF-295 CNS,24 µM
same,GI50,NCI-H23 lung,2.91 µM
same,TGI,NCI-H23 lung,11.4 µM
same,GI50,OVCAR-5 ovarian,5.75 µM
same,TGI,OVCAR-5 ovarian,18.6 µM
same,GI50,OVCAR-3 ovarian,3.63 µM
same,TGI,OVCAR-3 ovarian,14.4 µM
same,GI50,SK-MEL-5 melanoma,12.1 µM
same,TGI,SK-MEL-5 melanoma,25 µM
same,GI50,HOP-92 NSCLC,3.26 µM
same,TGI,HOP-92 NSCLC,16.7 µM
same,GI50,HOP-62 NSCLC,4.19 µM
same,TGI,HOP-62 NSCLC,17.8 µM
same,GI50,BT-549 breast,14.5 µM
same,TGI,BT-549 breast,29 µM
same,GI50,NCI-H226 lung,4.1 µM
same,TGI,NCI-H226 lung,19.4 µM
same,GI50,RXF 393 renal,4.16 µM
same,TGI,RXF 393 renal,15.4 µM
same,GI50,SF-268 CNS,4.43 µM
same,TGI,SF-268 CNS,20.8 µM
same,GI50,A549 NSCLC,2.08 µM
same,TGI,A549 NSCLC,4.78 µM
same,GI50,MALME-3M melanoma,3.14 µM
same,TGI,MALME-3M melanoma,9.99 µM
same,GI50,PC-3 prostate,5.2 µM
same,TGI,PC-3 prostate,27.4 µM
same,GI50,LOX IMVI melanoma,6.17 µM
same,TGI,LOX IMVI melanoma,19.3 µM
same,GI50,786-0 renal,6.88 µM
same,TGI,786-0 renal,20.8 µM
same,GI50,SK-MEL-28 melanoma,4.26 µM
same,TGI,SK-MEL-28 melanoma,14.7 µM
same,GI50,MOLT-4 leukemia,4.93 µM
same,TGI,MOLT-4 leukemia,> 100 µM
same,GI50,HS 578T breast,14 µM
same,TGI,HS 578T breast,65.7 µM
same,GI50,OVCAR-4 ovarian,5.24 µM
same,TGI,OVCAR-4 ovarian,20.9 µM
same,GI50,SNB-19 CNS,11 µM
same,TGI,SNB-19 CNS,23 µM
same,GI50,TK-10 renal,17.9 µM
same,TGI,TK-10 renal,32.9 µM
same,GI50,IGROV1 ovarian,5.07 µM
same,TGI,IGROV1 ovarian,18.3 µM
same,GI50,UACC-62 melanoma,9.93 µM
same,TGI,UACC-62 melanoma,21.8 µM
same,GI50,MDA-MB-435,3.04 µM
same,TGI,MDA-MB-435,12.1 µM
